From patent publication US11413297B2, “Therapies for treating and preventing chronic rhinosinusitis” (Avanti Polar Lipids, LLC, priority 2017, dated 2022)
“Also recorded” adds a separate entry of the source.

Assays:
Type in all cases: cell-based
[1] = system: P. aeruginosa in preformed biofilm; assay: Bacterial density of P. aeruginosa in preformed biofilm, OD600 (Example 7); conditions: in combination with gentamicin; 6 h; phospholipid 512, 1024, 2048 μg/ml; FIGS. 10A-10D
Experimental: We performed in vitro studies of the capacity of phospholipids together with antibiotics to eradicate preformed bacterial biofilms. The tests were conducted as follows. Biofilm formation was obtained by culturing P. aeruginosa in cation-adjusted Mueller Hinton Broth after incubation at 37 degrees C. for 24 hours in 96 well plates. The medium was then removed and replaced by treatment solutions of gentamicin, phospholipids plus gentamicin, or control solutions. Four different phospholipids (MAPCHO-10, MAPCHO-12, MAPCHO-14, and MAPCHO-16) were tested at three different phospholipid test concentrations (512 μg/ml, 1024 μg/ml, and 2048 μg/ml). After 24 hours at 37 degrees C., media was removed and fresh medium was added and the 96-well plates were incubated at 37 degrees C. for 6 hours. Bacterial density was then analyzed and measured at OD600.

[2] = system: P. aeruginosa biofilm formation; assay: Prevention of P. aeruginosa biofilm formation, crystal violet (Example 5); conditions: 24 h
Experimental: We performed in vitro tests of the capacity of phospholipids together with antibiotics to prevent formation of biofilms. Freshly grown P. aeruginosa was quantitated and placed in 96-well plates together with gentamicin alone, phospholipids plus gentamicin, or control solutions. Four different phospholipids (MAPCHO-10, MAPCHO-12, MAPCHO-14, and MAPCHO-16) were tested at two different phospholipid test concentrations (1024 μg/ml and 2048 μg/ml). After 24 hours at 37 degrees C., the fluids were removed and the wells stained with crystal violet, and then the density of crystal violet in the wells was quantitated.

P. aeruginosa [3] = assay: Prevention of P. aeruginosa bacterial growth, OD600 after 24 h (Example 6); conditions: in combination with gentamicin, phospholipid 512, 1024, 2048 μg/ml, FIGS. 9A-9C
Experimental: We performed in vitro studies of the capacity of phospholipids together with antibiotics to prevent bacterial growth. Freshly grown P. aeruginosa was quantitated and placed in 96-well plates together with gentamicin alone, phospholipids plus gentamicin, or control solutions. Three different phospholipids (MAPCHO-12, MAPCHO-14, and MAPCHO-16) were tested at three different phospholipid test concentrations (512 μg/ml, 1024 μg/ml, and 2048 μg/ml). After 24 hours at 37 degrees C., bacterial density was then analyzed and measured at OD600.

[4] = system: preformed P. aeruginosa biofilms; assay: Disruption of preformed P. aeruginosa biofilms, crystal violet (Example 3); conditions: for disruption of preformed P. aeruginosa biofilms: 6 h time point; for eradication of preformed P. aeruginosa biofilms: 24 h time point, FIGS. 5A-5C
Experimental: We performed in vitro studies of the capacity of phospholipids together with antibiotics to disrupt preformed bacterial biofilms. The tests were conducted as follows. Biofilm formation was obtained by culturing P. aeruginosa in cation-adjusted Mueller Hinton Broth after incubation at 37 degrees C. for 24 hours in 96 well plates. The medium was then removed and replaced by treatment solutions of gentamicin, phospholipids plus gentamicin, or control solutions. Either three or four different phospholipids (MAPCHO-10, MAPCHO-12, MAPCHO-14, and MAPCHO-16) were tested at three different phospholipid test concentrations (512 μg/ml, 1024 μg/ml, and 2048 μg/ml). After 24 hours at 37 degrees C., media was removed and fresh medium was added and the 96-well plates were incubated at 37 degrees C. for either 6 hours or 24 hours. Media were then removed and biofilm at the base of the wells was stained with crystal violet and quantitated.

[5] = system: S. aureus (NCTC 8325) biofilm formation; assay: Prevention of S. aureus (NCTC 8325) biofilm formation, crystal violet at 540 nm (Example 12); conditions: 24 hours; for prevention of biofilm formation by S. aureus (NCTC 8325): agent alone (antibiotic alone at low concentrations, or phospholipid alone)
Experimental: (§1) We also performed in vitro tests of the capacity of phospholipids together with antibiotics to prevent formation of biofilms. Freshly grown S. aureus (NCTC 8325) were quantitated and placed in 96-well plates together with phospholipids plus gentamicin and tobramycin (antibiotics) or antibiotics alone. After 24 hours at 37 degrees C., the fluids were removed and the wells stained with crystal violet, and then the density of crystal violet in the wells was quantitated by absorption of light at 540 nm.

[6] = system: preformed S. aureus (ATCC BAA-1720) biofilms; assay: Disruption of preformed S. aureus biofilm, crystal violet staining (Example 1)
Experimental: We performed in vitro studies of the capacity of phospholipids together with antibiotics to disrupt preformed bacterial biofilms. The tests were conducted as follows. Biofilm formation was obtained by culturing (1) S. aureus in tryptic soy broth media supplemented with 5% glucose; and (2) P. aeruginosa in cation-adjusted Mueller Hinton Broth after incubation at 37 degrees C. for 24 hours in 96 well plates. The medium was then removed and replaced by treatment solutions of antibiotics, antibiotics+phospholipids, phospholipids alone, or control solutions. Phospholipid concentration used in the assays was 512 μg/ml although in some studies, was […]. After 24 hours at 37 degrees C., media was removed and fresh medium was added and the 96-well plates incubated at 37 degrees C. for 24 hours. Media were then removed and biofilm at the base of the wells was stained with crystal violet and quantitated.

[7] = system: S. aureus (ATCC BAA-1720) biofilm formation; assay: Prevention of S. aureus biofilm formation, crystal violet at 540 nm (Example 2); conditions: 24 hours
Experimental: as §1, with “and P. aeruginosa” for “(NCTC 8325)”, “(antibiotics), phospholipids alone, antibiotics alone” for “(antibiotics)”, “controls solution.” for “antibiotics alone.”

P. aeruginosa [8] = assay: Inhibition of growth of planktonic P. aeruginosa, OD600 (Example 4); conditions: in combination with gentamicin, compared to gentamicin alone
Experimental: We performed in vitro studies of the capacity of phospholipids together with antibiotics to inhibit the growth of planktonic bacteria. The tests were conducted as follows. Freshly grown P. aeruginosa was quantitated and placed in 96-well plates together with gentamicin alone, phospholipids plus gentamicin, or control solutions. Four different phospholipids (MAPCHO-10, MAPCHO-12, MAPCHO-14, and MAPCHO-16) were tested at two different phospholipid test concentrations (1024 μg/ml and 2048 μg/ml). After 24 hours at 37 degrees C., media was removed and fresh medium was added and the 96-well plates were incubated at 37 degrees C. for either 6 hours or 24 hours. Bacterial density was then analyzed and measured at OD600.

S. aureus = assay: Inhibition of growth of planktonic S. aureus, OD600 (Example 8); conditions: in combination with gentamicin, compared to gentamicin alone; 6 h; phospholipid 256, 512, 1024 μg/ml
Experimental: (§2) We performed in vitro studies of the capacity of phospholipids together with antibiotics to inhibit the growth of planktonic bacteria. The tests were conducted as follows. Freshly grown S. aureus was quantitated and placed in 96-well plates together with gentamicin alone, phospholipids plus gentamicin, or control solutions. Two different phospholipids (MAPCHO-10 and MAPCHO-12) were tested at three different phospholipid test concentrations (256 μg/ml, 512 μg/ml, and 1024 μg/ml). After 24 hours at 37 degrees C., media was removed and fresh medium was added and the 96-well plates were incubated at 37 degrees C. for 6 hours. Bacterial density was then analyzed and measured at OD600.

MRSA biofilm formation = assay: Prevention of MRSA biofilm formation at 6 h, crystal violet (Example 11); conditions: in combination with gentamicin, phospholipid 512 μg/ml and 1024 μg/ml
Experimental: (§3) We performed in vitro tests of the capacity of phospholipids together with antibiotics to prevent formation of biofilms. Freshly grown MRSA was quantitated and placed in 96-well plates together with gentamicin alone, phospholipids plus gentamicin, or control solutions. Two different phospholipids (MAPCHO-10 and MAPCHO-12) were tested at three different phospholipid test concentrations (256 μg/ml, 512 μg/ml, and 1024 μg/ml). After 6 hours at 37 degrees C., the fluids were removed and the wells stained with crystal violet, and then the density of crystal violet in the wells was quantitated.

MRSA = assay: Inhibition of growth of planktonic MRSA, OD600 (Example 10); conditions: in combination with gentamicin, compared to gentamicin alone; 6 h; phospholipid 256, 512, 1024 μg/ml
Experimental: as §2, with “MRSA” for “S. aureus”

[9] = system: S. aureus biofilm formation; assay: Prevention of S. aureus biofilm formation at 6 h, crystal violet (Example 9); conditions: in combination with gentamicin, phospholipid 256, 512, 1024 μg/ml
Experimental: as §3, with “S. aureus” for “MRSA”, “([…]-10” for “(MAPCHO-10”, “[…]-12)” for “MAPCHO-12)”

[10] = in combination with gentamicin, phospholipid 1024 or 2048 μg/ml, FIGS. 8B, 8C
[11] = in combination with gentamicin, phospholipid 512, 1024 and 2048 μg/ml, FIGS. 4B-4D
[12] = in combination with gentamicin, phospholipid 512, 1024 and 2048 μg/ml
[13] = agent alone (gentamicin alone or phospholipid alone)
[14] = agent alone (gentamicin alone at low concentrations, or phospholipid alone)
[15] = 6 h time point, phospholipid 1024 and 2048 μg/ml

Row | Compound | inhibition of P. aeruginosa bacterial growth in preformed biofilm relative to gentamicin alone [1] | prevention of P. aeruginosa biofilm formation [2, 10] | inhibition of P. aeruginosa bacterial growth relative to gentamicin alone (P. aeruginosa [3]) | disruption of preformed P. aeruginosa biofilms [4, 11] | eradication of preformed P. aeruginosa biofilms [4, 12] | prevention of biofilm formation by S. aureus (NCTC 8325) [5] | disruption of preformed biofilm of S. aureus [6, 13] | prevention of biofilm formation by S. aureus [7, 14] | inhibition of P. aeruginosa growth (P. aeruginosa [8]; [15]) | inhibition of S. aureus growth (S. aureus) | inhibition of MRSA growth (MRSA) | prevention of S. aureus biofilm formation compared to gentamicin alone [9] | further results
1 | CCCCCCCCCCCCCCCCOP(=O)([O-])OCC[N+](C)(C)C [MAPCHO-16] | more effective | effective at preventing | more effective | disruption of P. aeruginosa biofilms occurs | nearly complete eradication |  |  |  |  |  |  |  | 
2 | NC[C@H]1O[C@H](O[C@H]2[C@H](O)[C@@H](O[C@H]3O[C@H](CO)[C@@H](O)[C@H](N)[C@H]3O)[C@H](N)C[C@@H]2N)[C@H](N)C[C@@H]1O [tobramycin, reference compound] |  |  |  |  |  | did not prevent the formation of the biofilm |  |  |  |  |  |  | 
3 | gentamicin [reference compound] |  |  |  |  |  | did not prevent the formation of the biofilm | not successful | does not prevent the formation of the biofilm |  |  |  |  | prevention of P. aeruginosa biofilm formation ([2]; gentamicin alone, FIG. 8A): unable to prevent; disruption of preformed P. aeruginosa biofilms ([4]; gentamicin alone, FIG. 4A): did not induce biofilm disruption
4 | CCCCCCCCCCCCCCOP(=O)([O-])OCC[N+](C)(C)C [MAPCHO-14, N-tetradecylphosphocholine] | more effective | effective at preventing | more effective | disruption of P. aeruginosa biofilms occurs | nearly complete eradication |  |  |  | moderate inhibition |  |  |  | inhibition of P. aeruginosa growth (P. aeruginosa [8]; 24 h time point, phospholipid 1024 and 2048 μg/ml): significant inhibition
5 | CCCCCCCCCCCCOP(=O)([O-])OCC[N+](C)(C)C [MAPCHO-12, N-dodecylphosphocholine] | more effective | effective at preventing |  | disruption of P. aeruginosa biofilms occurs | nearly complete eradication | did not prevent biofilm formation | did not disrupt the biofilm | did not prevent biofilm formation | moderate inhibition | strong inhibition | strong inhibition | more effective | effect on formation of biofilm by S. aureus (NCTC 8325) ([5]; 512 μg dose of phospholipid in combination with gentamicin, FIGS. 15, 16): positive effects; also recorded: able to prevent biofilm formation; effect on formation of biofilm by S. aureus (NCTC 8325) ([5]; 512 μg dose of phospholipid in combination with tobramycin, FIGS. 15, 17): positive effects; also recorded: able to prevent biofilm formation; disruption of preformed biofilm of S. aureus ([6]; phospholipid together with gentamicin, FIG. 2): disrupt preformed biofilm; sterilization of S. aureus on disruption of the biofilm ([6]; phospholipid/gentamicin combination): sterilized; inhibition of P. aeruginosa growth (P. aeruginosa [8]; 24 h time point, highest phospholipid dose 2048 μg/ml): significant inhibition; prevention of biofilm formation by S. aureus ([7]; phospholipid combined with gentamicin at low concentrations, FIG. 3): did prevent biofilm formation; prevention of MRSA biofilm formation compared to gentamicin alone (MRSA biofilm formation): tends to be more effective
6 | CCCCCCCCCCOP(=O)([O-])OCC[N+](C)(C)C [MAPCHO-10, N-decylphosphocholine] |  |  |  |  |  |  |  |  |  | moderate inhibition | moderate inhibition | more effective | 
